# Source: ChEMBL document CHEMBL1129198, “Synthesis and antibacterial activity of lipophilic carbapenems with anti-MRSA activity” (Bioorg Med Chem Lett, 1996)
# Columns and labels:
# [1] = system: Streptococcus pneumoniae; experiment: Antibacterial activity against penicillin-resistant Streptococcus pneumoniae 671319; assay type: functional
# [2] = system: Staphylococcus aureus; experiment: Antibacterial activity against methicillin-sensitive Staphylococcus aureus 601055.(grown in the presence of blood); assay type: functional
# [3] = system: Staphylococcus aureus; experiment: Antibacterial activity against methicillin-resistant Staphylococcus aureus 601053.; assay type: functional
# [4] = system: Staphylococcus aureus; experiment: Antibacterial activity against methicillin-sensitive Staphylococcus aureus 601055.; assay type: functional
# [5] = system: Enterococcus faecalis; experiment: Antibacterial activity against vancomycin-sensitive Enterococcus faecalis 683026.; assay type: functional
# [6] = system: Staphylococcus aureus; experiment: Antibacterial activity against methicillin-resistant Staphylococcus aureus 607004.; assay type: functional
# [7] = system: Enterococcus faecium; experiment: Antibacterial activity against vancomycin-resistant Enterococcus faecium 628016.; assay type: functional
# [8] = system: Staphylococcus haemolyticus; experiment: Antibacterial activity against methicillin-resistant Staphylococcus haemolyticus 601117; assay type: functional
# [9] = In vitro binding affinity towards PBP2'' of Staphylococcus aureus using [14C]benzylpenicillin as radioligand
# [10] = system: Staphylococcus aureus; experiment: Compound was tested for its binding affinity against PBP2' receptor in Staphylococcus aureus.; assay type: functional, organism-based
# [11] = system: Staphylococcus aureus; experiment: Compound was tested for its binding affinity against PBP2'' receptor in Staphylococcus aureus. Values taken from literature.; assay type: functional
smiles,measurement,setting,value
C[C@@H](O)[C@H]1C(=O)N2C(C(=O)O)=C(COc3cccc4c3CCC4=O)[C@H](C)[C@H]12,MIC,[1],0.06 µg/mL
same,MIC,[2],0.008 µg/mL
same,MIC,[3],0.12 µg/mL
same,MIC,[4],0.016 µg/mL
same,MIC,[5],1 µg/mL
same,MIC,[6],4 µg/mL
same,MIC,[7],2 µg/mL
same,MIC,[8],8 µg/mL
C[C@@H](O)[C@H]1C(=O)N2C(C(=O)O)=C(CSc3ccc4ccccc4n3)[C@H](C)[C@H]12,MIC,[1],0.06 µg/mL
same,MIC,[2],0.03 µg/mL
same,MIC,[3],0.13 µg/mL
same,MIC,[4],0.016 µg/mL
same,MIC,[5],4 µg/mL
same,MIC,[6],4 µg/mL
same,MIC,[7],1 µg/mL
same,MIC,[8],0.5 µg/mL
C[C@@H](O)[C@H]1C(=O)N2C(C(=O)O)=C(COc3ccc4occ(CN(C)C)c(=O)c4c3)[C@H](C)[C@H]12,MIC,[1],0.12 µg/mL
same,MIC,[2],0.016 µg/mL
same,MIC,[3],0.5 µg/mL
same,MIC,[4],0.06 µg/mL
same,MIC,[5],0.5 µg/mL
same,MIC,[6],4 µg/mL
same,MIC,[7],2 µg/mL
same,MIC,[8],2 µg/mL
C[C@@H](O)[C@H]1C(=O)N2C(C(=O)[O-])=C(COc3ccc4nc(C[n+]5ccccc5)sc4c3)[C@H](C)[C@H]12,MIC,[1],0.06 µg/mL
same,MIC,[2],0.016 µg/mL
same,MIC,[3],0.25 µg/mL
same,MIC,[4],0.03 µg/mL
same,MIC,[5],0.5 µg/mL
same,MIC,[6],4 µg/mL
same,MIC,[7],2 µg/mL
same,MIC,[8],2 µg/mL
C[C@@H](O)[C@H]1C(=O)N2C(C(=O)O)=C(COc3ccc4c(c3)CCC4)[C@H](C)[C@H]12,MIC,[1],1 µg/mL
same,MIC,[2],8 µg/mL
same,MIC,[3],1 µg/mL
same,MIC,[4],0.03 µg/mL
same,MIC,[5],64 µg/mL
same,MIC,[6],16 µg/mL
same,MIC,[7],32 µg/mL
same,MIC,[8],16 µg/mL
C[C@@H](O)[C@H]1C(=O)N2C(C(=O)O)=C(COc3ccc4ccccc4c3)[C@H](C)[C@H]12,MIC,[1],4 µg/mL
same,MIC,[2],32 µg/mL
same,MIC,[3],0.25 µg/mL
same,MIC,[4],0.016 µg/mL
same,MIC,[5],128 µg/mL
same,MIC,[6],4 µg/mL
same,MIC,[7],64 µg/mL
same,MIC,[8],2 µg/mL
C[C@@H](O)[C@H]1C(=O)N2C(C(=O)O)=C(CSc3ccc4c(c3)CC(=O)N4C)[C@H](C)[C@H]12,MIC,[1],0.25 µg/mL
same,MIC,[2],0.06 µg/mL
same,MIC,[3],4 µg/mL
same,MIC,[4],0.12 µg/mL
same,MIC,[5],4 µg/mL
same,MIC,[6],8 µg/mL
same,MIC,[7],8 µg/mL
same,MIC,[8],16 µg/mL
C[C@@H](O)[C@H]1C(=O)N2C(C(=O)O)=C(Sc3cccc4ccccc34)[C@H](C)[C@H]12,MIC,[1],1 µg/mL
same,MIC,[2],0.06 µg/mL
same,MIC,[3],1 µg/mL
same,MIC,[4],0.06 µg/mL
same,MIC,[5],16 µg/mL
same,MIC,[6],8 µg/mL
same,MIC,[7],32 µg/mL
same,MIC,[8],8 µg/mL
C[C@@H](O)[C@H]1C(=O)N2C(C(=O)O)=C(SCCNC(=O)c3ccc4ccccc4c3)[C@H](C)[C@H]12,MIC,[1],0.25 µg/mL
same,MIC,[2],0.13 µg/mL
same,MIC,[3],4 µg/mL
same,MIC,[4],0.13 µg/mL
same,MIC,[5],4 µg/mL
same,MIC,[6],64 µg/mL
same,MIC,[7],8 µg/mL
same,MIC,[8],256 µg/mL
C[C@@H](O)[C@H]1C(=O)N2C(C(=O)O)=C(COc3cccc4c3C/C(=C\c3cccs3)C4=O)[C@H](C)[C@H]12,MIC,[1],0.03 µg/mL
same,MIC,[2],0.008 µg/mL
same,MIC,[3],0.25 µg/mL
same,MIC,[4],0.008 µg/mL
same,MIC,[5],2 µg/mL
same,MIC,[6],2 µg/mL
same,MIC,[7],4 µg/mL
same,MIC,[8],0.5 µg/mL
C[C@@H](O)[C@H]1C(=O)N2C(C(=O)O)=C(CNC(=O)c3ccc4ccccc4c3)[C@H](C)[C@H]12,MIC,[1],4 µg/mL
same,MIC,[2],0.25 µg/mL
same,MIC,[3],8 µg/mL
same,MIC,[4],0.5 µg/mL
same,MIC,[5],16 µg/mL
same,MIC,[6],128 µg/mL
same,MIC,[7],32 µg/mL
same,MIC,[8],128 µg/mL
C[C@@H](O)[C@H]1C(=O)N2C(C(=O)O)=C(Sc3ccc(C#N)c4ccccc34)[C@H](C)[C@H]12,MIC,[1],0.25 µg/mL
same,MIC,[2],0.016 µg/mL
same,MIC,[3],0.5 µg/mL
same,MIC,[4],0.016 µg/mL
same,MIC,[5],8 µg/mL
same,MIC,[6],2 µg/mL
same,MIC,[7],2 µg/mL
same,MIC,[8],1 µg/mL
C[C@@H](O)[C@H]1C(=O)N2C(C(=O)O)=C(CSc3ccc4ccccc4c3)[C@H](C)[C@H]12,MIC,[1],1 µg/mL
same,MIC,[2],32 µg/mL
same,MIC,[3],0.5 µg/mL
same,MIC,[4],0.016 µg/mL
same,MIC,[5],128 µg/mL
same,MIC,[6],4 µg/mL
same,MIC,[7],128 µg/mL
same,MIC,[8],2 µg/mL
C[C@@H](O)[C@H]1C(=O)N2C(C(=O)O)=C(Sc3ccc4ccccc4c3)[C@H](C)[C@H]12,MIC,[1],2 µg/mL
same,MIC,[2],0.03 µg/mL
same,MIC,[3],1 µg/mL
same,MIC,[4],0.03 µg/mL
same,MIC,[5],16 µg/mL
same,MIC,[6],8 µg/mL
same,MIC,[7],8 µg/mL
same,MIC,[8],8 µg/mL
C[C@@H](O)[C@H]1C(=O)N2C(C(=O)O)=C(COc3ccc4occc(=O)c4c3)[C@H](C)[C@H]12,MIC,[1],0.03 µg/mL
same,MIC,[2],0.016 µg/mL
same,MIC,[3],0.25 µg/mL
same,MIC,[4],0.016 µg/mL
same,MIC,[5],2 µg/mL
same,MIC,[6],2 µg/mL
same,MIC,[7],2 µg/mL
same,MIC,[8],2 µg/mL
C[C@@H](O)[C@H]1C(=O)N2C(C(=O)O)=C(COc3cccc4c3CCCC4=O)[C@H](C)[C@H]12,MIC,[1],0.06 µg/mL
same,MIC,[2],0.008 µg/mL
same,MIC,[3],0.25 µg/mL
same,MIC,[4],0.016 µg/mL
same,MIC,[5],2 µg/mL
same,MIC,[6],2 µg/mL
same,MIC,[7],2 µg/mL
same,MIC,[8],4 µg/mL
C[C@@H](O)[C@H]1C(=O)N2C(C(=O)O)=C(CSc3ccc4c(c3)OCCC4=O)[C@H](C)[C@H]12,MIC,[1],0.03 µg/mL
same,MIC,[2],0.008 µg/mL
same,MIC,[3],1 µg/mL
same,MIC,[4],0.03 µg/mL
same,MIC,[5],1 µg/mL
same,MIC,[6],1 µg/mL
same,MIC,[7],0.5 µg/mL
same,MIC,[8],1 µg/mL
Cc1nc2ccc(SCC3=C(C(=O)O)N4C(=O)[C@H]([C@@H](C)O)[C@H]4[C@H]3C)cc2s1,MIC,[1],0.06 µg/mL
same,MIC,[2],0.016 µg/mL
same,MIC,[3],2 µg/mL
same,MIC,[4],0.03 µg/mL
same,MIC,[5],2 µg/mL
same,MIC,[6],4 µg/mL
same,MIC,[7],8 µg/mL
same,MIC,[8],4 µg/mL
C[C@@H](O)[C@H]1C(=O)N2C(C(=O)[O-])=C(COc3ccc4cc(Cn5cc[n+](C)c5)ccc4c3)[C@H](C)[C@H]12,MIC,[1],0.06 µg/mL
same,MIC,[2],0.016 µg/mL
same,MIC,[3],0.5 µg/mL
same,MIC,[4],0.016 µg/mL
same,MIC,[5],2 µg/mL
same,MIC,[6],1 µg/mL
same,MIC,[7],2 µg/mL
same,MIC,[8],2 µg/mL
C[C@@H](O)[C@H]1C(=O)N2C(C(=O)O)=C(SCc3ccc4ccccc4c3)[C@H](C)[C@H]12,IC50,[9],9.5 µg/mL
same,MIC,[1],0.06 µg/mL
same,MIC,[2],0.03 µg/mL
same,MIC,[3],1 µg/mL
same,MIC,[4],0.06 µg/mL
same,MIC,[5],2 µg/mL
same,MIC,[6],1 µg/mL
same,IC50,[10],9.5 µg/mL
same,IC50,[11],2 µg/mL
same,MIC,[7],8 µg/mL
same,MIC,[8],2 µg/mL
C[C@@H](O)[C@H]1C(=O)N2C(C(=O)O)=C(SCCc3ccc4ccccc4c3)[C@H](C)[C@H]12,MIC,[1],0.5 µg/mL
same,MIC,[2],0.13 µg/mL
same,MIC,[3],8 µg/mL
same,MIC,[4],0.13 µg/mL
same,MIC,[5],8 µg/mL
same,MIC,[6],32 µg/mL
same,MIC,[7],16 µg/mL
same,MIC,[8],128 µg/mL
C[C@@H](O)[C@H]1C(=O)N2C(C(=O)O)=C(CSc3ccc4c(c3)CCC4=O)[C@H](C)[C@H]12,MIC,[1],0.03 µg/mL
same,MIC,[2],0.008 µg/mL
same,MIC,[3],0.5 µg/mL
same,MIC,[4],0.016 µg/mL
same,MIC,[5],1 µg/mL
same,MIC,[6],2 µg/mL
same,MIC,[7],0.5 µg/mL
same,MIC,[8],2 µg/mL
